{
  "source": "ChEMBL document CHEMBL3885881",
  "about": "“DrugMatrix”",
  "organism": "Rattus norvegicus",
  "format": "toxicity, organism-based, Sprague-Dawley",
  "conditions": "in vivo, 0 mg/kg, 24 h, dose level Control, time 1 day, vehicle 100 % SALINE",
  "key": {"[1]": {"conditions": "sc, tissue Blood, route mini-PUMP - SUBCUTANEOUS"}, "[2]": {"conditions": "sc, tissue Plasma, route mini-PUMP - SUBCUTANEOUS"}, "[3]": {"conditions": "iv, vehicle control, tissue Blood"}, "[4]": {"conditions": "iv, vehicle control, tissue Plasma"}},
  "description": "DrugMatrix - Regimen: Single",
  "data": [
    {"compound": "CNC[C@H](O)c1ccc(O)c(O)c1", "note": "[EPINEPHRINE]", "values": [
      {"measurement": "ABSOLUTE EOSINOPHIL", "setting": "[1]", "value": 26.17, "unit": "CELLS/uL"},
      {"measurement": "ABSOLUTE LYMPHOCYTE", "setting": "[1]", "value": 10985.83, "unit": "CELLS/uL"},
      {"measurement": "ABSOLUTE MONOCYTE", "setting": "[1]", "value": 234.5, "unit": "CELLS/uL"},
      {"measurement": "ABSOLUTE SEGMENTED NEUTROPHIL", "setting": "[1]", "value": 1753.5, "unit": "CELLS/uL"},
      {"measurement": "BASOPHIL", "setting": "[1]", "value": 0, "unit": "%"},
      {"measurement": "EOSINOPHIL", "setting": "[1]", "value": 0.17, "unit": "%"},
      {"measurement": "ERYTHROCYTE COUNT", "setting": "[1]", "value": 5.64, "unit": "x10E6/uL"},
      {"measurement": "HEMOGLOBIN", "setting": "[1]", "value": 12.68, "unit": "G/DL"},
      {"measurement": "LEUKOCYTE COUNT", "setting": "[1]", "value": 13, "unit": "x10E3/uL"},
      {"measurement": "LYMPHOCYTE", "setting": "[1]", "value": 84.5, "unit": "%"},
      {"measurement": "MEAN CORPUSCULAR HEMOGLOBIN", "setting": "[1]", "value": 22.5, "unit": "pg"},
      {"measurement": "MEAN CORPUSCULAR HEMOGLOBIN CONCENTRATION", "setting": "[1]", "value": 36.78, "unit": "G/DL"},
      {"measurement": "MEAN CORPUSCULAR VOLUME", "setting": "[1]", "value": 61.18, "unit": "fL"},
      {"measurement": "NEUTROPHIL", "setting": "[1]", "value": 13.5, "unit": "%"},
      {"measurement": "NUCLEATED RED BLOOD CELLS", "setting": "[1]", "value": "0.17 /100WBC"},
      {"measurement": "PLATELET COUNT", "setting": "[1]", "value": 679.17, "unit": "x10E3/uL"},
      {"measurement": "ALANINE AMINOTRANSFERASE", "setting": "[2]", "value": 42.67, "unit": "u/L"},
      {"measurement": "ALBUMIN", "setting": "[2]", "value": 3.77, "unit": "G/DL"},
      {"measurement": "ALKALINE PHOSPHATASE", "setting": "[2]", "value": 291.17, "unit": "u/L"},
      {"measurement": "ASPARTATE AMINOTRANSFERASE", "setting": "[2]", "value": 74.5, "unit": "u/L"},
      {"measurement": "BLOOD UREA NITROGEN", "setting": "[2]", "value": 15.33, "unit": "mg/dL"},
      {"measurement": "CARBON DIOXIDE", "setting": "[2]", "value": 30, "unit": "mmol/L"},
      {"measurement": "CHLORIDE", "setting": "[2]", "value": 100.83, "unit": "MEQ/L"},
      {"measurement": "CHOLESTEROL", "setting": "[2]", "value": 65.33, "unit": "mg/dL"},
      {"measurement": "CREATININE", "setting": "[2]", "value": 0.15, "unit": "mg/dL"},
      {"measurement": "LACTATE DEHYDROGENASE", "setting": "[2]", "value": 162.67, "unit": "u/L"},
      {"measurement": "LIPASE", "setting": "[2]", "value": 8.5, "unit": "u/L"},
      {"measurement": "PHOSPHORUS", "setting": "[2]", "value": 12.2, "unit": "mg/dL"},
      {"measurement": "POTASSIUM", "setting": "[2]", "value": 5.73, "unit": "MEQ/L"},
      {"measurement": "SODIUM", "setting": "[2]", "value": 144.7, "unit": "MEQ/L"},
      {"measurement": "TOTAL BILIRUBIN", "setting": "[2]", "value": 0.15, "unit": "mg/dL"},
      {"measurement": "TOTAL PROTEIN", "setting": "[2]", "value": 5.87, "unit": "G/DL"},
      {"measurement": "URIC ACID", "setting": "[2]", "value": 1.93, "unit": "mg/dL"}
    ]},
    {"compound": "CC(=O)[C@]1(O)Cc2c(O)c3c(c(O)c2[C@@H](O[C@H]2C[C@H](N)[C@H](O)[C@H](C)O2)C1)C(=O)c1ccccc1C3=O", "note": "[IDARUBICIN]", "values": [
      {"measurement": "ABSOLUTE BASOPHIL", "setting": "[3]", "value": 280, "unit": "cells/µL"},
      {"measurement": "ABSOLUTE EOSINOPHIL", "setting": "[3]", "value": 75, "unit": "cells/µL"},
      {"measurement": "ABSOLUTE LYMPHOCYTE", "setting": "[3]", "value": 9060, "unit": "cells/µL"},
      {"measurement": "ABSOLUTE MONOCYTE", "setting": "[3]", "value": 260, "unit": "cells/µL"},
      {"measurement": "BASOPHIL", "setting": "[3]", "value": 2.17, "unit": "%"},
      {"measurement": "EOSINOPHIL", "setting": "[3]", "value": 0.62, "unit": "%"},
      {"measurement": "ERYTHROCYTE COUNT", "setting": "[3]", "value": 6.64, "unit": "x10E6/uL"},
      {"measurement": "HEMATOCRIT", "setting": "[3]", "value": 42.6, "unit": "%"},
      {"measurement": "HEMOGLOBIN", "setting": "[3]", "value": 13.5, "unit": "G/DL"},
      {"measurement": "LEUKOCYTE COUNT", "setting": "[3]", "value": 11.87, "unit": "x10E3/uL"},
      {"measurement": "LYMPHOCYTE", "setting": "[3]", "value": 76.3, "unit": "%"},
      {"measurement": "MEAN CORPUSCULAR HEMOGLOBIN", "setting": "[3]", "value": 20.37, "unit": "pg"},
      {"measurement": "MEAN CORPUSCULAR HEMOGLOBIN CONCENTRATION", "setting": "[3]", "value": 31.75, "unit": "G/DL"},
      {"measurement": "MEAN CORPUSCULAR VOLUME", "setting": "[3]", "value": 64.17, "unit": "fL"},
      {"measurement": "MONOCYTE", "setting": "[3]", "value": 2.1, "unit": "%"},
      {"measurement": "NEUTROPHIL", "setting": "[3]", "value": 16.75, "unit": "%"},
      {"measurement": "PLATELET COUNT", "setting": "[3]", "value": 1144.5, "unit": "x10E3/uL"},
      {"measurement": "ALANINE AMINOTRANSFERASE", "setting": "[4]", "value": 42.75, "unit": "u/L"},
      {"measurement": "ALBUMIN", "setting": "[4]", "value": 3.6, "unit": "G/DL"},
      {"measurement": "ALKALINE PHOSPHATASE", "setting": "[4]", "value": 314.75, "unit": "u/L"},
      {"measurement": "ASPARTATE AMINOTRANSFERASE", "setting": "[4]", "value": 66.5, "unit": "u/L"},
      {"measurement": "BLOOD UREA NITROGEN", "setting": "[4]", "value": 14, "unit": "mg/dL"},
      {"measurement": "CARBON DIOXIDE", "setting": "[4]", "value": 37.5, "unit": "mmol/L"},
      {"measurement": "CHLORIDE", "setting": "[4]", "value": 108, "unit": "MEQ/L"},
      {"measurement": "CHOLESTEROL", "setting": "[4]", "value": 74.25, "unit": "mg/dL"},
      {"measurement": "CREATINE PHOSPHOKINASE", "setting": "[4]", "value": 271, "unit": "u/L"},
      {"measurement": "CREATININE", "setting": "[4]", "value": 0.65, "unit": "mg/dL"},
      {"measurement": "GLUCOSE", "setting": "[4]", "value": 171, "unit": "mg/dL"},
      {"measurement": "LACTATE DEHYDROGENASE", "setting": "[4]", "value": 125.75, "unit": "u/L"},
      {"measurement": "LIPASE", "setting": "[4]", "value": 27.5, "unit": "u/L"},
      {"measurement": "PHOSPHORUS", "setting": "[4]", "value": 11.25, "unit": "mg/dL"},
      {"measurement": "POTASSIUM", "setting": "[4]", "value": 6.72, "unit": "MEQ/L"},
      {"measurement": "SODIUM", "setting": "[4]", "value": 153.5, "unit": "MEQ/L"},
      {"measurement": "TOTAL BILIRUBIN", "setting": "[4]", "value": 0.23, "unit": "mg/dL"},
      {"measurement": "TOTAL PROTEIN", "setting": "[4]", "value": 6.2, "unit": "G/DL"},
      {"measurement": "URIC ACID", "setting": "[4]", "value": 0.85, "unit": "mg/dL"}
    ]}
  ]
}
